Reference: the NIST ThermoML archive (doi:10.1021/je900460m)
Numbers after ± are expanded uncertainties.

CCCCCCn1cc[n+](C)c1.N#C[S-] [1-hexyl-3-methylimidazolium thiocyanate]
mass density (298.15 K, 101.33 kPa, Liquid, Pycnometric method): 1056.92 ± 11 kg/m3 | viscosity (298.15 K, Liquid, Capillary tube (Ostwald / Ubbelohde) method): 93.62 ± 3.1 mPa·s | Glass transition temperature (Glass, visual observation): -83.2 ± 3 °C
